Reference: patent US20080027117A1, “Antifungal Azole Derivatives Having a Fluorovinyl Moiety and Process for the Preparation Thereof” (KOREA RESERACH INSTIITUTE OF CHEMICAL TECHNOLOGY, priority 2003, published 2008)
In brackets after ≈: the same amount, converted by molar mass. Where two headings read alike, the source gives them in different places.

Experiments:
[1] = target: T1, CYP 1A2 (Homo sapiens, UniProt P05177); test: Hepatic toxicity: Phenacetin O-deethylase in human hepatic microsomes
T1 sequence (P05177 1-516): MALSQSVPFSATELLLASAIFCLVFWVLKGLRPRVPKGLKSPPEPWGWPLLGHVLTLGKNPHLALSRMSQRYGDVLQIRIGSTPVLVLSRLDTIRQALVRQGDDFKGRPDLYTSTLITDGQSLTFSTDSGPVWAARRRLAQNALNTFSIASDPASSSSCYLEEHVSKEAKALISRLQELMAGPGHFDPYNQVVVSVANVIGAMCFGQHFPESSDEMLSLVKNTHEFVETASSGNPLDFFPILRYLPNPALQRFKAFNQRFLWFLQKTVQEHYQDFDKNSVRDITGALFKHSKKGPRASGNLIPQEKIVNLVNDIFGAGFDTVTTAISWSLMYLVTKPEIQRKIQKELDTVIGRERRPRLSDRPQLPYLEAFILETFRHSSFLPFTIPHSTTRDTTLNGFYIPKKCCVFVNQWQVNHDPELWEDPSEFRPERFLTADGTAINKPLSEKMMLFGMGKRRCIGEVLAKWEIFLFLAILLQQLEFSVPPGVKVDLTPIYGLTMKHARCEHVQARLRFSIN
Protocol: (§1) After incubating at 37° C. for 20 min, 200 μl of each resulting solution was mixed with 100 μl of acetonitrile, and analyzed with LC-MS (LC column: Luna2 C8, 2×100 mm, flow velocity: 0.2 ml/min, MS system: Quattro LC (micromass)) using a 5% MeOH aqueous solution containing 0.1% formic acid as an eluent.

[2] = target: CYP 2D6 (Homo sapiens, UniProt P10635); test: Hepatic toxicity: Bufuralol 1′-hydroxylase in human hepatic microsomes
Chain of CYP 2D6 (P10635 whole entry): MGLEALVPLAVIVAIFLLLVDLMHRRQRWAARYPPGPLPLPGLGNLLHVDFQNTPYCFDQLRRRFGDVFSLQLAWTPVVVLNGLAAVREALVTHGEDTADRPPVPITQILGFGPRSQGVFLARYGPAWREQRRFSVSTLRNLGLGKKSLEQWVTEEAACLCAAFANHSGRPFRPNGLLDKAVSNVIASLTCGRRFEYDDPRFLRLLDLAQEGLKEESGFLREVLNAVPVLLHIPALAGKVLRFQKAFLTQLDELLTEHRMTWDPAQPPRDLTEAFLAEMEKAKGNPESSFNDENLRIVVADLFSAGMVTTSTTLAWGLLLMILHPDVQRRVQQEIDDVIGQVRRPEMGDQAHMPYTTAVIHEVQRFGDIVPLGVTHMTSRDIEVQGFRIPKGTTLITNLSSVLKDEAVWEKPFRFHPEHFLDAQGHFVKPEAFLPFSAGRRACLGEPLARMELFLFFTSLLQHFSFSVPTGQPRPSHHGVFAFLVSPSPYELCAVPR
Protocol: as §1

[3] = target: T2, CYP 2A6 (Homo sapiens, UniProt P11509); test: Hepatic toxicity: Coumarin 7-hydroxylase in human hepatic microsomes
T2 sequence (P11509 1-494): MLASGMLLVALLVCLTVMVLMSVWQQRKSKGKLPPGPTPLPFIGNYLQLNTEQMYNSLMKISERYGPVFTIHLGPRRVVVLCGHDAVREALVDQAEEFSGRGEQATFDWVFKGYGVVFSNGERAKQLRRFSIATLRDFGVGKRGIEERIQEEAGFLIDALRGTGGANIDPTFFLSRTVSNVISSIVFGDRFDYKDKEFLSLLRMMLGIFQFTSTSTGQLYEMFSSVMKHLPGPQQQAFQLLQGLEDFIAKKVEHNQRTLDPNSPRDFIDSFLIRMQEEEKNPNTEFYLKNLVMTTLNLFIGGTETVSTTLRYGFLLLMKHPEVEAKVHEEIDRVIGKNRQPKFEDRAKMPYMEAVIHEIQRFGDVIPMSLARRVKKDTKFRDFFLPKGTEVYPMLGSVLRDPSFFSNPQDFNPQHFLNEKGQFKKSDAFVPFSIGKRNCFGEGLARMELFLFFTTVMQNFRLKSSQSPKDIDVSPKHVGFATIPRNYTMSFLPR
Protocol: as §1

[4] = system: Candida albicans ATCC 10231; test: In vitro antifungal activity, microbroth dilution (MIC80); format: cell-based; settings: lowest concentration reducing growth by 80% relative to untreated control; RPMI-1640, 35° C.
Protocol: (§2) Sabourad Dextrose Agar (Difco), YM Agar or Potato Dextrose Agar was used as a culture medium according to ATCC information, and RPMI-1640 broth (Sigma. Co. w/L-glutamine, wo/NaHCO3)(0.165 M MOPS, pH 7.0), as a dilution medium. […] In the case of yeasts, the turbidity (light absorbance) of the suspension was adjusted to 0.108 at 530 nm, and then the suspension was diluted 1000-fold with sterile RPMI-1640 liquid medium to 1.0103˜5.0103 CFU/ml. The turbidity of fungi was adjusted to 80˜82% and the suspension was diluted 50-fold to 0.4102˜0.5104 CFU/ml. […] 0.1 ml portions of the test solutions were added to the wells of a sterile 96 well plate. Then, 0.1 ml portions of each test strain solutions were added successively to the wells and the plate was incubated at 35° C. for […]. Minimal inhibitory concentration (MIC80) of each compound was determined as the lowest concentration of the test compounds required to reduce growth by 80% relative to a control strain not treated.

[5] = system: Candida krusei ATCC 6258; test: as above; format: cell-based; settings: lowest concentration reducing growth by 80% relative to untreated control; RPMI-1640, 35° C.
Protocol: as §2

[6] = system: C. neoformans ATCC 36556; test: as above; format: cell-based; settings: lowest concentration reducing growth by 80% relative to untreated control; RPMI-1640, 35° C.
Protocol: as §2

[7] = target: T3, CYP 2C8 (Homo sapiens, UniProt P10632); test: Hepatic toxicity: Paclitaxel 6 α-hydroxylase in human hepatic microsomes
T3 sequence (P10632 1-490): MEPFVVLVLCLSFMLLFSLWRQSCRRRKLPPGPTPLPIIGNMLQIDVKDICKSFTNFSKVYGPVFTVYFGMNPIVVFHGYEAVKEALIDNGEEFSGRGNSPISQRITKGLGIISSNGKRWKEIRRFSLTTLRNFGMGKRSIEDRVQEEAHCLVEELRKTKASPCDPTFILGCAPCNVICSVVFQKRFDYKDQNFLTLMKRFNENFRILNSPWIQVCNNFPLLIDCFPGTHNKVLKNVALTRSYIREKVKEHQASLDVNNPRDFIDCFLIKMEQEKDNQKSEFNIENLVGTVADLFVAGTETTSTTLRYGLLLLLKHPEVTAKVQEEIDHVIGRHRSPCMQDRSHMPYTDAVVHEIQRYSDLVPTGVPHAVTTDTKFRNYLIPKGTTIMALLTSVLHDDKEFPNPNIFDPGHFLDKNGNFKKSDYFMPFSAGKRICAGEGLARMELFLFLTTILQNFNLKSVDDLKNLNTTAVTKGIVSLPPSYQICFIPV
Protocol: as §1

[8] = target: CYP 3A4 (Homo sapiens, UniProt P08684); test: Hepatic toxicity: Midazolam 1′-hydroxylase in human hepatic microsomes; settings: read-out: IC50 Midazolam 1′-hydroxylase CYP 3A4; human hepatic microsomes 0.5 mg/ml, 37° C., 20 min, LC-MS
Chain of CYP 3A4 (P08684 whole entry): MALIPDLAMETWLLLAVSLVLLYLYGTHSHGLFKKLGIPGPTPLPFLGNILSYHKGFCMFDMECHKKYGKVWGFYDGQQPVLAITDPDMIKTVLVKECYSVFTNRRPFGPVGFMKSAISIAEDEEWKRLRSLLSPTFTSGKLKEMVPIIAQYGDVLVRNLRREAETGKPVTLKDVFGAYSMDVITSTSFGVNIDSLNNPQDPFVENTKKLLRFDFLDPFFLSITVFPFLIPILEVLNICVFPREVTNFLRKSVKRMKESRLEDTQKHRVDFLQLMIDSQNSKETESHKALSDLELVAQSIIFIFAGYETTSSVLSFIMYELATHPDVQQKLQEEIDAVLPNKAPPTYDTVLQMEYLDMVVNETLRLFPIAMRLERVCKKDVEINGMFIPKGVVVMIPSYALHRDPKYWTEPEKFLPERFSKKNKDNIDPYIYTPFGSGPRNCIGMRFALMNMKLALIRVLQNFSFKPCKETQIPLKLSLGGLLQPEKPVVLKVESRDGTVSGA
Protocol: as §1

[9] = target: CYP 2C19 (Homo sapiens, UniProt P33261); test: Hepatic toxicity: Mephenytoin 4-hydroxylase in human hepatic microsomes
Chain of CYP 2C19 (P33261 whole entry): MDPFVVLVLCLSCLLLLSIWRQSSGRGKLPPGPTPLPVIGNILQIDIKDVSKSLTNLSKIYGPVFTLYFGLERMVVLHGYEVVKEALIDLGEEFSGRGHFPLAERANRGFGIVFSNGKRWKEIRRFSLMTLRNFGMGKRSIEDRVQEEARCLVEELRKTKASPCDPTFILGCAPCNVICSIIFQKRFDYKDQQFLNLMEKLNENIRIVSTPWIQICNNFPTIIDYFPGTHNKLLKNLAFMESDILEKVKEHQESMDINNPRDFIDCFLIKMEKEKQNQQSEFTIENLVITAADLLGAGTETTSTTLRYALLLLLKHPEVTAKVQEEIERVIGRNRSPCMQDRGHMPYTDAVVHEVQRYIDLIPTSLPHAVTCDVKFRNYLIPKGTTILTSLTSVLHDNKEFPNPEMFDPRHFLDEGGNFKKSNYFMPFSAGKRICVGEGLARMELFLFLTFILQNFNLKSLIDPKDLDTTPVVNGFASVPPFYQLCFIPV
Protocol: as §1

[10] = system: ICR mice; test: Toxicity of oral administration; format: in vivo; settings: oral administration in DMSO, observed over 2 weeks
Protocol: Specific pathogen-free ICR mice, 2 females and 2 males were used for the each testing. The compound of Example 40 of the present invention was dissolved in DMSO and the solution was orally administered in doses of 62, 125, 250, 500, 1,000 and 2,000 mg of the compound/kg of the body weight (10 ml of the sample volume/kg of the body weight).

[11] = target: CYP 2C9 (Homo sapiens, UniProt P11712); test: Hepatic toxicity: Diclofenac 4′-hydroxylase in human hepatic microsomes
Chain of CYP 2C9 (P11712 whole entry): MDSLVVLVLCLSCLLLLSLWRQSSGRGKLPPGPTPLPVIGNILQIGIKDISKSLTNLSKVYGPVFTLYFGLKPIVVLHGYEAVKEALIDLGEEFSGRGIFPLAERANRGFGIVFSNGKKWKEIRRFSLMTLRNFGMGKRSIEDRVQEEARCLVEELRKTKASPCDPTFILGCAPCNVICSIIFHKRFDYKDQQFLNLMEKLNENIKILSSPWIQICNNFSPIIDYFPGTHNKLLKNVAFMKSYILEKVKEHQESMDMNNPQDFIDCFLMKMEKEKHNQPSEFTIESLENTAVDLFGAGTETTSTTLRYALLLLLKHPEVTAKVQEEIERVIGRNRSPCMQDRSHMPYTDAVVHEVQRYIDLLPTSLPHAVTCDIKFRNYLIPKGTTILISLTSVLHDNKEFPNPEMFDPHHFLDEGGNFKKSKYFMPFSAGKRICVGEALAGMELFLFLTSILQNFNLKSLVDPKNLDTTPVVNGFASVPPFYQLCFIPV
Protocol: as §1

[12] = system: A. fumigatus ATCC 16424; test: In vitro antifungal activity, microbroth dilution (MIC80); format: cell-based; settings: lowest concentration reducing growth by 80% relative to untreated control; RPMI-1640, 35° C.
Protocol: as §2

[13] = system: Candida albicans MYA-573; test: as above; format: cell-based; settings: lowest concentration reducing growth by 80% relative to untreated control; RPMI-1640, 35° C.
Protocol: as §2

| Compound | MIC Range (MIC80) Candida albicans ATCC 10231 [4] | MIC Range (MIC80) Candida krusei ATCC 6258 [5] | MIC Range (MIC80) C. neoformans ATCC 36556 [6] | MIC Range (MIC80) A. fumigatus ATCC 16424 [12] | MIC Range (MIC80) Candida albicans MYA-573 [13] | IC50 ([1]; microsomes) | IC50 [8] | IC50 ([9]; microsomes) | IC50 ([2]; microsomes) | IC50 ([11]; microsomes) | IC50 ([3]; microsomes) | IC50 ([7]; microsomes) | further results |
| --- | --- | --- | --- | --- | --- | --- | --- | --- | --- | --- | --- | --- | --- |
| CC(n1cnc(-c2ccc(OC(F)=Cc3ccc(Cl)cc3)cc2)n1)C(O)(Cn1cncn1)c1ccc(F)cc1F (stereo not drawn) [Example 40] |  |  |  |  |  | > 100 µM | > 100 µM | > 100 µM | > 100 µM | > 100 µM | > 100 µM | 30.1 µM | LD50 [10]: approximately 1,750 mg/kg; fetal dose [10]: 1,000˜2,000 mg/kg |
| CC(n1ccn(-c2ccc(OC(F)=C(c3ccc(Cl)cc3)C(F)(F)F)cc2)c1=O)C(O)(Cn1cncn1)c1ccc(F)cc1F (mixture of isomers) [Example 121] |  |  |  |  |  | > 100 µM | > 100 µM | > 100 µM | > 100 µM | > 100 µM | > 100 µM | 41.2 µM |  |
| CC(N1CCN(c2ccc(OC(F)=Cc3cccc(Cl)c3)cc2)C1=O)C(O)(Cn1cncn1)c1ccc(F)cc1F (mixture of isomers) [Example 111] |  |  |  |  |  | > 100 µM | > 100 µM | > 100 µM | > 100 µM | > 100 µM | > 100 µM | > 100 µM |  |
| CC(OC(F)=C(c1ccccc1)C(F)(F)F)C(O)(Cn1cncn1)c1ccc(F)cc1F (stereo not drawn) [Example 5] | 2~4 μg/ml | >16 µg/mL | 4 µg/mL (≈ 8.75 µM) | >16 µg/mL | >256 µg/mL |  |  |  |  |  |  |  |  |
| COc1ccc(C(=C(F)Oc2ccc(-c3ncn(C(C)C(O)(Cn4cncn4)c4ccc(F)cc4F)n3)cc2)C(F)(F)F)cc1 (stereo not drawn) [Example 32] |  |  |  |  |  |  | > 100 µM |  |  |  |  |  | IC50 ([1]; read-out: IC50 Phenacetin O-deethylase CYP 1A2, human hepatic microsomes 0.5 mg/ml, 37° C., 20 min, LC-MS): > 100 µM; IC50 ([9]; read-out: IC50 Mephenytoin 4-hydroxylase CYP 2C19, human hepatic microsomes 0.5 mg/ml, 37° C., 20 min, LC-MS): > 100 µM; IC50 ([2]; read-out: IC50 Bufuralol 1′-hydroxylase CYP 2D6, human hepatic microsomes 0.5 mg/ml, 37° C., 20 min, LC-MS): > 100 µM; IC50 ([11]; read-out: IC50 Diclofenac 4′-hydroxylase CYP 2C9, human hepatic microsomes 0.5 mg/ml, 37° C., 20 min, LC-MS): > 100 µM; IC50 ([3]; read-out: IC50 Coumarin 7-hydroxylase CYP 2A6, human hepatic microsomes 0.5 mg/ml, 37° C., 20 min, LC-MS): > 100 µM; IC50 ([7]; read-out: IC50 Paclitaxel 6 α-hydroxylase CYP 2C8, human hepatic microsomes 0.5 mg/ml, 37° C., 20 min, LC-MS): 19.9 µM |
| C[C@@H]1[C@H](O)[C@@H](C)/C=C/C=C/C=C/C=C/C=C/C=C/C=C/[C@H](O[C@@H]2O[C@H](C)[C@@H](O)[C@H](N)[C@@H]2O)C[C@@H]2O[C@](O)(C[C@@H](O)C[C@@H](O)[C@H](O)CC[C@@H](O)C[C@@H](O)CC(=O)O[C@H]1C)C[C@H](O)[C@H]2C(=O)O [Amphotericine B, reference compound] | 0.5~1 μg/ml | 1 µg/mL (≈ 1.08 µM) | 0.25~1 μg/ml | 0.5~1 μg/ml | 1~2 μg/ml |  |  |  |  |  |  |  |  |
| CC(=O)N1CCN(c2ccc(OCC3COC(Cn4ccnc4)(c4ccc(Cl)cc4Cl)O3)cc2)CC1 (stereo not drawn) [ketoconazole, reference compound] |  |  |  |  |  |  |  |  |  |  |  |  | IC50 [3]: > 100 µM |

Continued, in another order:

| MIC Range (MIC80) Candida albicans ATCC 10231 [4] | MIC Range (MIC80) Candida krusei ATCC 6258 [5] | MIC Range (MIC80) C. neoformans ATCC 36556 [6] | MIC Range (MIC80) A. fumigatus ATCC 16424 [12] | MIC Range (MIC80) Candida albicans MYA-573 [13] | Compound | IC50 ([1]; microsomes) | IC50 [8] | IC50 ([9]; microsomes) | IC50 ([2]; microsomes) | IC50 ([11]; microsomes) | IC50 ([3]; microsomes) | IC50 ([7]; microsomes) | further results |
| --- | --- | --- | --- | --- | --- | --- | --- | --- | --- | --- | --- | --- | --- |
| 2~4 μg/ml | 32~64 μg/ml | 16~32 μg/ml |  |  | OC(Cn1cncn1)(Cn1cncn1)c1ccc(F)cc1F [Fluconazole, reference compound] |  |  |  |  |  |  |  | IC50 [1]: > 100 µM; IC50 [2]: 44.2 µM; IC50 [3]: > 100 µM; IC50 [7]: > 100 µM |
| 1 µg/mL (≈ 2.08 µM) | 4 µg/mL (≈ 8.31 µM) | 0.5 µg/mL (≈ 1.04 µM) | >256 µg/mL | 1 µg/mL (≈ 2.08 µM) | CC(OC(F)=Cc1ccc(Oc2ccccc2)cc1)C(O)(Cn1cncn1)c1ccc(F)cc1F (stereo not drawn) [Example 15] |  |  |  |  |  |  |  |  |
| >64 µg/mL | >64 µg/mL | 16 µg/mL (≈ 32.8 µM) | >64 µg/mL |  | COc1cccc(C(=C(F)OC(C)C(O)(Cn2cncn2)c2ccc(F)cc2F)C(F)(F)F)c1 (stereo not drawn) [Example 13] |  |  |  |  |  |  |  |  |
